{
  "source": "patent US6897244B2",
  "about": "“Dihydronootkatone and tetrahydronootkatone as repellents to arthropods” (Board of Supervisors of Louisiana State University and …, priority 2002, dated 2005)",
  "key": {"[1]": {"system": "Formosan subterranean termites", "test": "Petri dish treated/untreated sand bioassay for repelling activity against termites", "assay_type": "in vivo, Coptotermes formosanus", "parameters": "key to percent of termites on untreated sand vs expected value of 50% (Chi-Square, p≦0.05): “−” indicates the test was not significantly different from the expected value; “+” indicates the test was significantly different from the expected value", "method": "A carton nest (colony A) of Formosan subterranean termites was collected in Algiers, Louisiana in November 1997, and held in 250-liter cans. The cans were filled with pine as a food source, and kept at a temperature range of 24-26° C. Moistened corrugated cardboard rolls were used to retrieve termites from the cans. Once the termites migrated to the cardboard rolls, they were gently knocked from the cardboard rolls into clean rectangular plastic trays (40 cm×50 cm). Retrieved termites were isolated from debris by allowing them to cling to sheets of moistened paper towels. The average weight of each termite was 1.21 mg.\nTo test for effectiveness of nootkatone, 1,10-dihydronootkatone and tetrahydronootkatone in repelling termites, a bioassay was conducted using Petri dishes (5 cm diameter and 1 cm height). To ensure adequate moisture for the termites, 1 ml of a hot agar solution (1.5% in H2O) was spread on the bottom of the Petri dish. After the agar cooled, sand that was treated as described below was spread on the bottom of the Petri dish. For the treated sand, purified 1,10-dihydronootkatone or tetrahydronootkatone were dissolved in 2 ml ethanol, and then diluted to achieve final concentrations of 1, 2, 5, 12.5, 25, 50, and 100 μg/g sand. The solution was mixed with 1 g sand that had been autoclaved and cooled. The control sand was autoclaved sand with only 200 μl ethanol added. One half of the surfaces in the Petri dishes were covered with 1 g treated sand, and the other half with 1 g untreated sand.\nThe prepared Petri dishes were then used to evaluate the repelling activity against Formosan subterranean termites. Ten worker termites were added to each Petri dish, and the dishes were covered to eliminate light. Five replicate dishes were tested for each concentration and for the control. Termite position was recorded every 15 min during the first hour of testing by counting the number of termites observed on untreated sand. After the first hour, termite position was recorded each hour for 3 hr.\nDifferences between the percent of termites on untreated sand and an expected value were statistically analyzed by a Chi-Square analysis, using an expected value of 50% and a significance level of p≦0.05."}, "[2]": {"system": "salt marsh mosquitoes, Aedes vexans", "test": "Mosquito bites on arm treated topically with 5% solution, placed in mosquito cage", "assay_type": "in vivo", "conditions": "for Number of Mosquito Bites in a 2 min Period: arm treated with 5 ml of 5% solution", "method": "To test the repellence of tetrahydronootkatone on mosquitos, tetrahydronootkatone was dissolved in 70% isopropyl alcohol to a final concentration of 5%. This solution was used to topically apply to the arms of two male volunteers. Each volunteer cleaned each arm thoroughly with soap and water, and then wiped down each arm with 70% isopropyl alcohol. The right arm of each volunteer was treated with 5 ml of the 5% tetrahydronootkatone solution. The left arm served as a control. To test for mosquito repellence, each arm of a single volunteer was placed into a cage of freshly collected mosquitoes, about 100 mosquitos per cage. The mosquitoes were salt marsh mosquitoes, Aedes […]. After 2 min, the number of mosquito bites on each arm were counted. Tests were run at 5 min, 1 hr, 2 hr, and 3 hr after the initial application of tetrahydronootkatone."}, "[3]": {"system": "biting midges (family Ceratopogonidae, genus Culicoides)", "test": "Field test of 5% solution applied to faces against biting midges in a marsh", "assay_type": "in vivo", "conditions": "5% solution in 70% isopropyl alcohol applied to faces of two volunteers", "method": "To test the repellence of tetrahydronootkatone on biting midges (family Ceratopogonidae, genus Culicoides), tetrahydronootkatone was dissolved in 70% isopropyl alcohol to a final concentration of 5%. This solution was used to topically apply to the faces of two adult male volunteers. […] The six males went into a southern Louisiana marsh, an area known for biting midges."}},
  "note": "“Also recorded” adds a separate entry of the source.",
  "data": [
    {"smiles": "CC(C)C1CCC2CC(=O)CC(C)C2(C)C1", "note": "(stereo not drawn) [Tetrahydronootkatone, 1,4,4a,5,6,7,8,10-octahydro-6-isopropl-4,4a-dimethyl-2(1H)-naphthalenone]", "values": [
      {"measurement": "percent of termites on untreated sand vs expected value of 50% (Chi-Square, p≦0.05)", "setting": "[1]; 1 μg/dish, 0.25 hour", "value": "−"},
      {"measurement": "percent of termites on untreated sand vs expected value of 50% (Chi-Square, p≦0.05)", "setting": "[1]; 1 μg/dish, 0.5 hour", "value": "−"},
      {"measurement": "percent of termites on untreated sand vs expected value of 50% (Chi-Square, p≦0.05)", "setting": "[1]; 1 μg/dish, 0.75 hour", "value": "−"},
      {"measurement": "percent of termites on untreated sand vs expected value of 50% (Chi-Square, p≦0.05)", "setting": "[1]; 1 μg/dish, 1 hour", "value": "−"},
      {"measurement": "percent of termites on untreated sand vs expected value of 50% (Chi-Square, p≦0.05)", "setting": "[1]; 1 μg/dish, 2 hour", "value": "−"},
      {"measurement": "percent of termites on untreated sand vs expected value of 50% (Chi-Square, p≦0.05)", "setting": "[1]; 1 μg/dish, 3 hour", "value": "−"},
      {"measurement": "percent of termites on untreated sand vs expected value of 50% (Chi-Square, p≦0.05)", "setting": "[1]; 2 μg/dish, 0.25 hour", "value": "+"},
      {"measurement": "percent of termites on untreated sand vs expected value of 50% (Chi-Square, p≦0.05)", "setting": "[1]; 2 μg/dish, 0.5 hour", "value": "+"},
      {"measurement": "percent of termites on untreated sand vs expected value of 50% (Chi-Square, p≦0.05)", "setting": "[1]; 2 μg/dish, 0.75 hour", "value": "+"},
      {"measurement": "percent of termites on untreated sand vs expected value of 50% (Chi-Square, p≦0.05)", "setting": "[1]; 2 μg/dish, 1 hour", "value": "+"},
      {"measurement": "percent of termites on untreated sand vs expected value of 50% (Chi-Square, p≦0.05)", "setting": "[1]; 2 μg/dish, 2 hour", "value": "+"},
      {"measurement": "percent of termites on untreated sand vs expected value of 50% (Chi-Square, p≦0.05)", "setting": "[1]; 2 μg/dish, 3 hour", "value": "+"},
      {"measurement": "percent of termites on untreated sand vs expected value of 50% (Chi-Square, p≦0.05)", "setting": "[1]; 5 μg/dish, 0.25 hour", "value": "−"},
      {"measurement": "percent of termites on untreated sand vs expected value of 50% (Chi-Square, p≦0.05)", "setting": "[1]; 5 μg/dish, 0.5 hour", "value": "+"},
      {"measurement": "percent of termites on untreated sand vs expected value of 50% (Chi-Square, p≦0.05)", "setting": "[1]; 5 μg/dish, 0.75 hour", "value": "+"},
      {"measurement": "percent of termites on untreated sand vs expected value of 50% (Chi-Square, p≦0.05)", "setting": "[1]; 5 μg/dish, 1 hour", "value": "+"},
      {"measurement": "percent of termites on untreated sand vs expected value of 50% (Chi-Square, p≦0.05)", "setting": "[1]; 5 μg/dish, 2 hour", "value": "+"},
      {"measurement": "percent of termites on untreated sand vs expected value of 50% (Chi-Square, p≦0.05)", "setting": "[1]; 5 μg/dish, 3 hour", "value": "+"},
      {"measurement": "percent of termites on untreated sand vs expected value of 50% (Chi-Square, p≦0.05)", "setting": "[1]; 12.5 μg/dish, 0.25 hour", "value": "+"},
      {"measurement": "percent of termites on untreated sand vs expected value of 50% (Chi-Square, p≦0.05)", "setting": "[1]; 12.5 μg/dish, 0.5 hour", "value": "+"},
      {"measurement": "percent of termites on untreated sand vs expected value of 50% (Chi-Square, p≦0.05)", "setting": "[1]; 12.5 μg/dish, 0.75 hour", "value": "+"},
      {"measurement": "percent of termites on untreated sand vs expected value of 50% (Chi-Square, p≦0.05)", "setting": "[1]; 12.5 μg/dish, 1 hour", "value": "+"},
      {"measurement": "percent of termites on untreated sand vs expected value of 50% (Chi-Square, p≦0.05)", "setting": "[1]; 12.5 μg/dish, 2 hour", "value": "+"},
      {"measurement": "percent of termites on untreated sand vs expected value of 50% (Chi-Square, p≦0.05)", "setting": "[1]; 12.5 μg/dish, 3 hour", "value": "+"},
      {"measurement": "percent of termites on untreated sand vs expected value of 50% (Chi-Square, p≦0.05)", "setting": "[1]; 25 μg/dish, 0.25 hour", "value": "−"},
      {"measurement": "percent of termites on untreated sand vs expected value of 50% (Chi-Square, p≦0.05)", "setting": "[1]; 25 μg/dish, 0.5 hour", "value": "+"},
      {"measurement": "percent of termites on untreated sand vs expected value of 50% (Chi-Square, p≦0.05)", "setting": "[1]; 25 μg/dish, 0.75 hour", "value": "+"},
      {"measurement": "percent of termites on untreated sand vs expected value of 50% (Chi-Square, p≦0.05)", "setting": "[1]; 25 μg/dish, 1 hour", "value": "+"},
      {"measurement": "percent of termites on untreated sand vs expected value of 50% (Chi-Square, p≦0.05)", "setting": "[1]; 25 μg/dish, 2 hour", "value": "+"},
      {"measurement": "percent of termites on untreated sand vs expected value of 50% (Chi-Square, p≦0.05)", "setting": "[1]; 25 μg/dish, 3 hour", "value": "+"},
      {"measurement": "percent of termites on untreated sand vs expected value of 50% (Chi-Square, p≦0.05)", "setting": "[1]; 50 μg/dish, 0.25 hour", "value": "+"},
      {"measurement": "percent of termites on untreated sand vs expected value of 50% (Chi-Square, p≦0.05)", "setting": "[1]; 50 μg/dish, 0.5 hour", "value": "+"},
      {"measurement": "percent of termites on untreated sand vs expected value of 50% (Chi-Square, p≦0.05)", "setting": "[1]; 50 μg/dish, 0.75 hour", "value": "+"},
      {"measurement": "percent of termites on untreated sand vs expected value of 50% (Chi-Square, p≦0.05)", "setting": "[1]; 50 μg/dish, 1 hour", "value": "+"},
      {"measurement": "percent of termites on untreated sand vs expected value of 50% (Chi-Square, p≦0.05)", "setting": "[1]; 50 μg/dish, 2 hour", "value": "+"},
      {"measurement": "percent of termites on untreated sand vs expected value of 50% (Chi-Square, p≦0.05)", "setting": "[1]; 50 μg/dish, 3 hour", "value": "+"},
      {"measurement": "percent of termites on untreated sand vs expected value of 50% (Chi-Square, p≦0.05)", "setting": "[1]; 100 μg/dish, 0.25 hour", "value": "+"},
      {"measurement": "percent of termites on untreated sand vs expected value of 50% (Chi-Square, p≦0.05)", "setting": "[1]; 100 μg/dish, 0.5 hour", "value": "+"},
      {"measurement": "percent of termites on untreated sand vs expected value of 50% (Chi-Square, p≦0.05)", "setting": "[1]; 100 μg/dish, 0.75 hour", "value": "+"},
      {"measurement": "percent of termites on untreated sand vs expected value of 50% (Chi-Square, p≦0.05)", "setting": "[1]; 100 μg/dish, 1 hour", "value": "+"},
      {"measurement": "percent of termites on untreated sand vs expected value of 50% (Chi-Square, p≦0.05)", "setting": "[1]; 100 μg/dish, 2 hour", "value": "+"},
      {"measurement": "percent of termites on untreated sand vs expected value of 50% (Chi-Square, p≦0.05)", "setting": "[1]; 100 μg/dish, 3 hour", "value": "+"},
      {"measurement": "factor by which the effective termite-repellent concentration is lower than that of nootkatone", "setting": "[1]; relative to nootkatone", "value": 50},
      {"measurement": "concentration effective as termite repellent", "setting": "[1]; time periods up to 3 hr", "value": 2, "unit": "µg"},
      {"measurement": "mosquito repellence", "setting": "[2]; 5% solution, time periods up to 3 hr after the initial application", "value": "effective mosquito repellent"},
      {"measurement": "Number of Mosquito Bites in a 2 min Period", "setting": "[2]; Volunteer 1, 5 min after application", "value": 0},
      {"measurement": "Number of Mosquito Bites in a 2 min Period", "setting": "[2]; Volunteer 1, 1 hr after application", "value": 0},
      {"measurement": "Number of Mosquito Bites in a 2 min Period", "setting": "[2]; Volunteer 1, 2 hr after application", "value": 0},
      {"measurement": "Number of Mosquito Bites in a 2 min Period", "setting": "[2]; Volunteer 1, 3 hr after application", "value": 0},
      {"measurement": "Number of Mosquito Bites in a 2 min Period", "setting": "[2]; Volunteer 2, 5 min after application", "value": 0},
      {"measurement": "Number of Mosquito Bites in a 2 min Period", "setting": "[2]; Volunteer 2, 1 hr after application", "value": 0},
      {"measurement": "Number of Mosquito Bites in a 2 min Period", "setting": "[2]; Volunteer 2, 2 hr after application", "value": 0},
      {"measurement": "Number of Mosquito Bites in a 2 min Period", "setting": "[2]; Volunteer 2, 3 hr after application", "value": 2},
      {"measurement": "repellence of biting midges", "setting": "[3]", "value": "fewer problems with biting midges; also recorded: effective repellent for biting midges"}
    ]}
  ]
}
